From patent US7166456B2, “Microorganism for producing riboflavin and method for producing riboflavin using the same” (CJ Corp., priority 2002, dated 2007)

How the values were obtained:
[1] = system: Bacillus subtilis AS5; experiment: Evaluation of resistance against thiaproline (growth on thiaproline-containing minimal medium); format: cell-based; parameters: key to growth of strain: +: growth; −: not growth; settings: 37° C., 5 days
Procedure: (§1) The Bacillus subtilis AS5 as the parent strain was obtained from BIONOM-S, Ltd. (Obolensk, Moscow, Russia). The Bacillus subtilis AS5 was suspended in phosphate buffer at pH 7.0 or citrate buffer at pH 5.5 to have a cell density of 10^7 to 10^8 cells/ml. A mutation-inducing agent, N-methyl-N′-nitro-N-nitrosoguanidine was added to the suspension until its concentration was 10 to 50 μg/ml. The resultant mixture was incubated at room temperature or 30° C. for 30 to 60 minutes to induce mutation. Then, the mixture was washed three times with 0.85% of saline solution and diluted in an appropriate manner. The diluted solution was plated onto 1.8% agar-containing minimal media with various concentrations of thiaproline and cultured at 37° C. for 5 days to obtain colonies. In this case, the concentration of thiaproline ranged from 0 mg/l to 100 mg/l. The formed colonies were inoculated onto nutrient agar media and cultured at 37° C. for 24 hours. Then, the resultant nutrient cultures were inoculated onto fermentation media and cultured at 37° C. for 4 to 5 days. The highest riboflavin-producing strain was selected.
In this example, in order to evaluate resistance to thiaproline, the Bacillus subtilis CJKB0001 (KCCM-10445) of Example 1 and the Bacillus subtilis AS5 as the parent strain were cultured in various concentrations of thiaproline-containing media. In detail, respective strains were inoculated onto thiaproline-containing media as shown in Table 1 and cultured at 37° C. for 5 days. In this case, the concentration of thiaproline ranged from 0 to 100 mg/l.

[2] = system: Bacillus subtilis CJKB0001 (KCCM-10445); experiment: as above; format: cell-based; parameters: key: +: growth; −: not growth; settings: 37° C., 5 days
Procedure: as §1
In this example, in order to evaluate resistance to thiaproline, the Bacillus subtilis CJKB0001 (KCCM-10445) of Example 1 and the Bacillus subtilis AS5 as the parent strain were cultured in various concentrations of thiaproline-containing media. […]

With `O=C(O)[C@@H]1CSCN1` [thiaproline] the growth of strain ([1]; 40 mg/l thiaproline) was “+”, the growth of strain ([1]; 50 mg/l thiaproline) was “−” and the growth of strain ([1]; 70 mg/l thiaproline) was “−”. The growth of strain ([1]; 100 mg/l thiaproline) was “−”, the “thiaproline concentration at which the strain cannot grow” value ([1]; thiaproline-containing medium) was “more than 40 mg/l” and the growth of strain ([2]; 70 mg/l thiaproline) was “+”. The growth of strain ([2]; 100 mg/l thiaproline) was “−”.
